# Reference: US20080206198A1, “Compounds and methods for pharmico-gene therapy of epithelial sodium channel associated disorders” (priority 2003, published 2008)
# Peptide text beside a SMILES is read from it. * marks the point of attachment. Cbz = O=C(OCc1ccccc1)*
# Experiments:
# [1] = system: primary human fibroblasts; format: cell-based; conditions: confluent primary human fibroblasts treated prior to rAAV infection; FACS at 96 hours post-infection
# Description: Initial studies were performed in confluent primary human fibroblasts since dose titrations and toxicity could be quickly assessed. Selected agents were used to treat fibroblast monolayers prior to rAAV infection. rAAV transduction was assessed at 96 hours post-infection by FACS analysis, and the percentage of dead cells was simultaneously assessed by incorporation of propidium iodide.
# These tripeptides are structurally related to chloroquine but have different lipid solubility and specificity for cysteine proteases (Seglen, 1983). These molecules decrease endosomal degradation of molecules by a mechanism different than altering pH.
# IB3-1 cells = assay: AAV2 FLAG-Luc transduction of IB3-1 cells; format: cell-based, human; conditions: 20 to 80 μM
# Description: (§1) A. To screen for agents that enhance rAAV transduction, any number of cells can be used. A range of concentrations of the agent to be tested can be determined based on, for instance desirable profiles of the agent, desirable toxicity profiles of the agent and/or concentration of the agents employed in vivo. The usefulness of the cell type chosen for the screen can be confirmed by testing compounds, e.g., proteasome inhibitors such as LLnL and ZLL which are known to increase rAAV transduction. For example, a AAV2 FLAG-Luc vector was employed to transduce HeLa, ferret fibroblasts, IB3 and Huh (liver) cells in the presence or absence of the proteasome inhibitor MG132. MG132 was confirmed to enhance AAV transduction in all cell types tested: HeLa cell transduction was enhanced about 500-fold at 80 μM, and 200-fold at 40 μM, MG132; ferret fibroblast cell transduction was enhanced about 200-fold at 20 μM, and 17-fold at 4 μM, MG132; IB3-1 cell transduction was enhanced about 30 to 70-fold at 20 to 80 μM MG132; and Huh-7 cell transduction was enhanced about 15-fold at 20 to 80 μM MG132. There was no difference in rAAV transduction efficiency in HeLa cells when either DMSO or ETOH was used as a vehicle for MG132. B. HeLa cells were selected to screen for additional agents that enhance rAAV transduction, although any cell strain or line; or primary cells, may be employed. […]
# Huh-7 cells = assay: AAV2 FLAG-Luc transduction of Huh-7 cells; format: cell-based; conditions: 20 to 80 μM
# Description: as §1
# mouse lung = assay: AV2.RSVlucCap5 nasal aspiration in mice with Z-LLL and/or doxorubicin; format: in vivo; conditions: 200 μM
# Description: To determine in vivo transduction efficiency of AV2.RSVlucCap5, mice were infected with 6×10^10 particles of AV2.RSVlucCap5 by nasal aspiration alone (control) or in combination with 200 μM Z-LLL, 200 μM doxorubicin or 200 μM Z-LLL and 200 μM doxorubicin (12 mice per group). Co-administration of Z-LLL induced whole lung luciferase expression 17.2- and 2.1-fold at 14 (2 weeks) and 42 (6 weeks) days post-infection, respectively.
# [2] = system: polarized airway epithelia; assay: Apical rAAV (AAV2 and AAV5 capsid) infection of polarized airway epithelia with agent combinations; format: cell-based, human; conditions: for concentration at which transduction was enhanced: polarized airway epithelial cells
# Description: (§2) C. To determine whether combinations of agents that enhance rAAV transduction efficiency have synergistic or additive effects when used in combination, cells were contacted with the proteasome modulator, doxorubicin, and the proteasome inhibitor Z-LLL or LLnL. Different AAV vectors were tested, including splicing vectors and pseudotyped rAAV. Viral stocks utilized were as follows: Av2RSVluc, 5×10^8 particle/μl; Av2RSVlucCap5 (also referred to as Av2/5 CMVLuc), 2×10^9 particle/μl; Av2CMVluc, 1.3×10^9 particle/μl; and Av2CMVlucCap5, 1.1×109 particle/μl. Combinations of agents were compared to the agents used alone to determine the efficiency of transduction. LLnL was used at 40, 200 or 400 μM, Z-LLL at 4 μM and doxorubicin at 0.5 or 1 μM when employed alone. When a combination of LLnL and doxorubicin was used, LLnL was used at 4, 10, 20, 40, 200 or 400 μM and doxorubicin at 1 or 5 μM. The apical surface of polarized airway epithelia, HeLa cells or ferret fibroblast was contacted with the agents and rAAV (5×10^9 particles per well).
# A549 cells = assay: rAAV transduction of A549 cells; format: cell-based, human; conditions: for induction of rAAV transduction: 24 hours post-infection
# Description: as §2
# (§3) LLnL and Z-LLL are two tripeptidyl aldehydes shown to inhibit calpains, cathepsins, cysteine proteases as well as the chymotrypsin-like protease activity of proteasomes (Wagner et al., 2002; Donkor, 2000; Sasaki et al., 1990). […] Both classes of proteasome inhibitors bind tightly to the proteasome complex. Dose response curves for these two proteasome-modulating agents were evaluated on IB3, A549, Hela, and primary fibroblasts. The responses were consistent for a number of cell lines and for three different promoters driving luciferase expression. For one set, CMV-driven luciferase constructs with an AAV2-based genome were employed that were packaged into AV2 or AV5 capsids. Cells were infected at various doses of AV2Luc and AV2/5Luc (MOIs 100 to 1000 particles/cell). At the time of infection, cells were treated with various concentrations of LLnL or Doxorubicin and gene expression was assayed at 24 hours post-infection. The effect of proteasome inhibitors on nuclear uptake of virus was evaluated using a previously-described protocol for fractionating viral DNA in the cytoplasm and nucleus (Xiao et al., 2002). Viral DNA content in the cytoplasmic and nuclear fractions was then evaluated by slot blot hybridization against a Luciferase DNA probe.
# IB3 cells [3] = assay: AV2Luc and AV2/5Luc transduction of IB3 cells; format: cell-based, human; conditions: 24 hours post-infection
# Description: as §3
# IB3 cells [4] = assay: Nuclear versus cytoplasmic viral DNA fractionation in rAAV2-infected IB3 cells; format: cell-based, human
# Description: as §3
# ENaC = assay: Amiloride-sensitive Isc time course in polarized CuFi epithelia; format: cell-based, human; conditions: 1 to 14 days
Compound,rAAV transduction [1],enhancement of IB3-1 cell transduction (IB3-1 cells) [fold],enhancement of Huh-7 cell transduction (Huh-7 cells),induction of whole lung luciferase expression (mouse lung; 14 days (2 weeks) post-infection) [fold],induction of whole lung luciferase expression (mouse lung; 42 days (6 weeks) post-infection) [fold],induction of AAV2 and AAV5 apical infection of polarized cells ([2]; in the presence of doxorubicin) [fold],concentration at which transduction was enhanced [2] [µM],concentration at which transduction was enhanced (A549 cells) [µM],induction of rAAV transduction (A549 cells),induction of rAAV transduction (IB3 cells [3]) [fold],fraction of viral DNA in the nuclear compartment (IB3 cells [4]),ENaC Isc time course (ENaC)
"CC(C)C[C@@H](C=O)NC(=O)[C@H](CC(C)C)NC(=O)[C@H](CC(C)C)NC(=O)OCc1ccccc1 [Z-LLL, N-carbobenzoxyl-L-leucinyl-L-leucinyl-L-leucinal] (Cbz-Leu-Leu-Leu-aldehyde)",significantly increased rAAV transduction,30 to 70,about 15 fold,17.2,2.1,–,–,–,–,–,–,–
COc1cccc2c1C(=O)c1c(O)c3c(c(O)c1C2=O)C[C@@](O)(C(=O)CO)C[C@@H]3O[C@H]1C[C@H](N)[C@H](O)[C@H](C)O1 [doxorubicin],–,–,–,–,–,200 to 600,5,5,200 fold,200,significantly increased the fraction of viral DNA in the nuclear compartment,gradual decline in ENaC Isc
N-acetyl-L-leucinyl-L-leucinal-L-norleucinal [LLnL],significantly increased rAAV transduction,–,–,–,–,–,40,200 to 400,10-fold lower levels of induction,> 200,significantly increased the fraction of viral DNA in the nuclear compartment,–
